Results from article PMC9820345, “Metal Complexes of a 5-Nitro-8-Hydroxyquinoline-Proline Hybrid with Enhanced Water Solubility Targeting Multidrug Resistant Cancer Cells” (International Journal of Molecular Sciences, 2022).

How the values were obtained:
[1] = Stability of the complexes in blood serum (UV-vis); assay type: in vitro ADME, human; settings: blood serum four-time diluted with PBS'; after 24 h
Text: The stability of the RhCp* and RuCym complexes of HQNO2-L-Pro was also monitored in Roswell Park Memorial Institute (RPMI) medium used for the in vitro cell studies (in the case of Colo cells), and in blood serum using UV-vis and ^1H NMR spectroscopy. […] Despite these changes, the dissociation of the complexes is not likely as the liberation of the unbound ligand was not observed; thus, the complexes most probably form ternary complexes with the components of the serum or the medium. In order to further study the reactivity of these complexes with bioligands, their interaction with human serum albumin (HSA) and selected oligopeptides (also used as binding models of HSA) was assayed.
Stock and sample solutions were prepared using Milli-Q water. […] Their concentrations were determined by complexometry via the EDTA complexes. […] The concentration of the Fe(II) stock solution was determined by permanganometric titrations under acidic conditions. […] Residual citrate content of HSA was removed by repeated ultrafiltration of the protein stock solution, and its concentration was calculated from its UV absorption: λ280nm (HSA) = 36,850 M^−1 cm^−1 [51]. […]

HSA site II = target: T1, HSA site II (Homo sapiens, UniProt P02768); assay: HSA dansylglycine (DG) site marker displacement by fluorometry (site II); assay type: binding; settings: 1 µM HSA, 1 µM DG, pH 7.4 (PBS')
T1 construct: purchased Sigma-Aldrich (Darmstadt, Germany) A8763
Experimental: Therefore, tryptophan (Trp-214) quenching and dansylglycine (DG) site marker displacement experiments were conducted by fluorometry to obtain information about the binding at sites I and II, respectively, using the same approach reported in our former paper. A representative spectral series is shown in Figure 9a for the Trp-214 quenching experiment, upon the addition of the RhCp*–HQNO2-L-Pro complex and the computed binding constants (logKQ’ and logKDG’) which can be found in Figure 9b, in addition to the corresponding data for the HQCl-L-Pro complexes.
A Fluoromax (Horiba Jobin Yvon, Longjumeau, France) spectrofluorometer was utilized for fluorescence measurements using a 1 cm × 1 cm quartz cuvette. Samples contained 1 µM HSA or DG and 1 µM HSA at pH 7.4 (PBS’), and the complex concentration was varied between 0 and 53 µM. The measurements were carried out on individual samples. Excitation wavelengths were 295 nm for Trp-214 quenching, and 335 nm for the DG displacement studies, respectively. The calculated conditional stability constants for HSA–complex species were obtained using the computer program HypSpec. Calculations always were based on data obtained from at least two independent measurements. Self-absorbance and inner filter effect had to be taken into account, and corrections were made as was described in our former works.

T1 sequence (P02768 25-609): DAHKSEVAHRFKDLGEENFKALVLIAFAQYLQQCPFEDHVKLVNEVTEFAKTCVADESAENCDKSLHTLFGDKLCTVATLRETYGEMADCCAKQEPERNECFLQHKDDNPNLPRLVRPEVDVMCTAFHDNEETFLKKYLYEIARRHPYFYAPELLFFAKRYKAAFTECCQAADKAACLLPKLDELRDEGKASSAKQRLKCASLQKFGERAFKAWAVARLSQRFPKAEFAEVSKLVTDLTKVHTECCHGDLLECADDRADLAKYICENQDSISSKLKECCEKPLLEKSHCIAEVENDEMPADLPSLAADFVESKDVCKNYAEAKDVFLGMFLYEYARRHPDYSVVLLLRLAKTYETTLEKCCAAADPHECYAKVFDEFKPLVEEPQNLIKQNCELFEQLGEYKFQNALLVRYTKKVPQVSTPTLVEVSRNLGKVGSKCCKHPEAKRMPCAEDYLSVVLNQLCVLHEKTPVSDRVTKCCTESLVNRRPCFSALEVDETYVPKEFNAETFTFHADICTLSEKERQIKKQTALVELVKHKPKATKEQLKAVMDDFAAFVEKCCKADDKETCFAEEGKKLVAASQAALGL

Structure (SMILES)	changes of the charge-transfer bands (400–500 nm) on incubation in serum [1]	DG marker displacement constant logKDG' (HSA site II)	Kd (HSA site II; read-out: DG marker displacement constant logKDG' (converted))
CC1=C(C)[C](C)([Rh]([Cl])[O]c2c(C[NH+]3CCC[C@H]3C(=O)O)cc([N+](=O)[O-])c3cccnc23)C(C)=C1C.[Cl-] [RhCp*-HQNO2-L-Pro, [RhCp*(HQNO2-L-Pro)Cl]Cl]	minor changes	5.6	
O=C(O)[C@@H]1CCCN1Cc1cc([N+](=O)[O-])c2cccnc2c1O [HQNO2-L-Pro, (2S)-1-((8-hydroxy-5-nitroquinolin-7-yl)methyl)pyrrolidin-1-ium-2-carboxylate]			33.9 µM
Cc1ccc(C(C)C)cc1.O=C(O)[C@@H]1CCC[NH+]1Cc1cc([N+](=O)[O-])c2ccc[n+]3c2c1[O][Ru-]3[Cl].[Cl-] [RuCym-HQNO2-L-Pro, [RuCym(HQNO2-L-Pro)Cl]Cl]	minor changes		
